Values quoted from earlier work, collected in patent publication US20240100064A1, “METHODS OF TREATING NEURODEVELOPMENTAL DISORDERS” (Woolsey Pharmaceuticals, Inc., priority 2020, published 2024).
Counter-ions that a name gives are not always drawn.

Legend:
[1] = test system: oligophrenin-1-deficient mice
[2] = in vivo, 1-hydroxy metabolite (Shibuya 2001)
[3] = oligophrenin-1-deficient mice (Allegra et al. 2017)
[4] = oligophrenin-1 deficient mice (Meziane et al. 2016)

SMILES	rescuing axon formation [1, 3]	spine density [1, 3]	hippocampal hyperexcitability ([1]; oligophrenin-1 deficient mice (Busti 2020))	behavioral changes [1, 4]	brain ventricular enlargement [1, 4]	half-life [2]
O=S(=O)(c1cccc2cnccc12)N1CCCNCC1 [Fasudil, Hexahydro-1-(5-isoquinolinesulfonyl)-1H-1,4-diazepine monohydrochloride hemihydrate]	not effective	restored	rescue	reverse	reverse	
O=S(=O)(c1cccc2c(O)nccc12)N1CCCNCC1 [M3]						about 8 hours
